≈ marks a conversion by molar mass, not a printed value. Each block holds one molecule with its values, some of them ahead of it.
Key:
Escherichia coli [1] = experiment: Inhibition of Escherichia coli W677/JR76.2 2'-O-adenylyltransferase at 650 uM using aminoglycoside and [14C]ATP incubated for 15 mins by liquid scintillation counting based radiochemical assay
Escherichia coli [2] = experiment: Inhibition of Escherichia coli W677/JR76.2 2'-O-adenylyltransferase at 6.5 uM using aminoglycoside and [14C]ATP incubated for 15 mins by liquid scintillation counting based radiochemical assay
[3] = Inhibition of HIV integrase 3' processing activity; design: species or system Human immunodeficiency virus
[4] = Inhibition of HIV integrase strand transfer activity; design: species or system Human immunodeficiency virus
[5] = system: Human immunodeficiency virus 1; experiment: Antiviral activity against HIV1 assessed as inhibition of viral replication in cell based assay; format: functional, organism-based
B16 [6] = experiment: Cytotoxicity against mouse B16 cells; format: functional, cell-based
B16 [7] = experiment: Inhibition of DNA synthesis in mouse B16 cells; format: functional, cell-based
B16 [8] = experiment: Inhibition of RNA synthesis in mouse B16 cells; format: functional, cell-based
B16 [9] = experiment: Inhibition of protein synthesis in mouse B16 cells; format: functional, cell-based
B16 [10] = experiment: Antitumor activity against mouse B16 cells implanted in mouse assessed as mouse survival at 1.3 mg/kg/day (reference value: 16 days); format: functional
B16 [11] = experiment: Antitumor activity against mouse B16 cells implanted in mouse assessed as mouse survival at 2.5 mg/kg/day (reference value: 16 days); format: functional
[12] = Inhibition of inositol monophosphatase (unknown origin); design: species or system Homo sapiens
[13] = Inhibition of alkaline phosphatase (unknown origin); design: species or system Homo sapiens
[14] = molecular target: T1, Dopamine beta-hydroxylase (Homo sapiens, UniProt P09172); experiment: Inhibition of dopamine beta-oxygenase (unknown origin)
T1 sequence (P09172 whole entry): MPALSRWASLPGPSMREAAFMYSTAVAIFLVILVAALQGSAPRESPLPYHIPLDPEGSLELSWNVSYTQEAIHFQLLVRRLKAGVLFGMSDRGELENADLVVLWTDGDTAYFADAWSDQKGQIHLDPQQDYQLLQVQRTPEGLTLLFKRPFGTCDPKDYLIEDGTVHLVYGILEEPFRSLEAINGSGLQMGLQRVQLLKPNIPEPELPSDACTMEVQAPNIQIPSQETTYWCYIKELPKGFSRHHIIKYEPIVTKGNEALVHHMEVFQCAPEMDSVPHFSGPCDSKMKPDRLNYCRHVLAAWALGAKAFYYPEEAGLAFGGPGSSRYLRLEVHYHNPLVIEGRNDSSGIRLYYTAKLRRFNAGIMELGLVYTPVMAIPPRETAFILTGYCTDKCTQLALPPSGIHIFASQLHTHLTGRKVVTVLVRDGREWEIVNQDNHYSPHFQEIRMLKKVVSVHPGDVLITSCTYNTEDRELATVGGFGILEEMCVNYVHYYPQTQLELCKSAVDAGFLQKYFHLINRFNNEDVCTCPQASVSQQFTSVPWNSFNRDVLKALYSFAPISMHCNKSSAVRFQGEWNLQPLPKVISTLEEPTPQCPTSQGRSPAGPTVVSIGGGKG

[15] = Inhibition of HIV reverse transcriptase RNase H; design: species or system Human immunodeficiency virus
[16] = Inhibition of HIV reverse transcriptase polymerase; design: species or system Human immunodeficiency virus
Plasmodium falciparum [17] = experiment: Antimalarial activity against chloroquine-resistant Plasmodium falciparum K1; format: functional, organism-based
B16 [18] = experiment: Antitumor activity against mouse B16 cells implanted in mouse assessed as mouse survival at 1 mg/kg/day (reference value: 16 days); format: functional
[19] = Inhibition of HIV1 reverse transcriptase RNase H; design: species or system Human immunodeficiency virus 1
[20] = Inhibition of HIV2 reverse transcriptase RNase H; design: species or system Human immunodeficiency virus 2
[21] = Inhibition of Escherichia coli ribonuclease H
[22] = Inhibition of human ribonuclease H
[23] = Inhibition of hepatitis B virus genotype D RNaseH
Hepatitis B virus [24] = experiment: Antiviral activity against HBV assessed as inhibition of viral replication at 10 uM in cell based assay; format: functional
[25] = Inhibition of XMRV RNaseH; design: species or system Xenotropic MuLV-related virus
Escherichia coli [26] = experiment: Inhibition of Escherichia coli W677/JR76.2 2'-O-adenylyltransferase at 730 uM using aminoglycoside and [14C]ATP incubated for 15 mins by liquid scintillation counting based radiochemical assay
Escherichia coli [27] = experiment: Inhibition of Escherichia coli W677/JR76.2 2'-O-adenylyltransferase at 7.3 uM using aminoglycoside and [14C]ATP incubated for 15 mins by liquid scintillation counting based radiochemical assay
[28] = Inhibition of hepatitis B virus genotype H RNaseH
Hepatitis B virus [29] = experiment: Antiviral activity against HBV assessed as inhibition of viral replication in cell based assay; format: functional, organism-based
Poria = experiment: Antifungal activity against Poria monticola; format: functional
Coniophora puteana = experiment: Antifungal activity against Coniophora puteana; format: functional
[30] = Antifungal activity against Polyporus versicolor; format: functional
[31] = Antifungal activity against Stereum sanguinolentum; format: functional
[32] = Antifungal activity against Phellinus weirii; format: functional
[33] = Toxicity in mouse assessed as induction of mortality after 48 hrs; format: organism-based; details: in vivo
[34] = Toxicity in mouse assessed as induction of mortality after 72 hrs; format: organism-based; details: in vivo
Plasmodium falciparum [35] = experiment: Antimalarial activity against Plasmodium falciparum FCR-3/Gambia; format: functional, organism-based
MRC5 = experiment: Cytotoxicity against human MRC5 cells; format: functional, cell-based
Plasmodium falciparum [36] = experiment: Antimalarial activity against Plasmodium falciparum infected in mouse; format: functional
[37] = Inhibition of phosphotidylcholine-preferring phospholipase C (unknown origin) at pH 7.3; design: species or system Homo sapiens
[38] = Inhibition of phosphotidylcholine-preferring phospholipase C (unknown origin) at pH 9.5; design: species or system Homo sapiens
Escherichia coli [39] = experiment: Inhibition of Escherichia coli W677/JR76.2 2'-O-adenylyltransferase at 55 uM using aminoglycoside and [14C]ATP incubated for 15 mins by liquid scintillation counting based radiochemical assay
Escherichia coli [40] = experiment: Inhibition of Escherichia coli W677/JR76.2 2'-O-adenylyltransferase at 5.5 uM using aminoglycoside and [14C]ATP incubated for 15 mins by liquid scintillation counting based radiochemical assay
Escherichia coli [41] = experiment: Inhibition of Escherichia coli W677/JR76.2 2'-O-adenylyltransferase at 550 uM using aminoglycoside and [14C]ATP incubated for 15 mins by liquid scintillation counting based radiochemical assay
Staphylococcus aureus = experiment: Antibacterial activity against Staphylococcus aureus; format: functional
Aspergillus fumigatus = experiment: Antifungal activity against Aspergillus fumigatus IAM2350; format: functional
Micrococcus luteus = experiment: Antibacterial activity against Micrococcus luteus; format: functional
Pseudomonas aeruginosa = experiment: Antibacterial activity against Pseudomonas aeruginosa; format: functional
Klebsiella pneumoniae = experiment: Antibacterial activity against Klebsiella pneumoniae; format: functional
Escherichia coli [42] = experiment: Antibacterial activity against Escherichia coli NIHJ; format: functional

SMILES: O=c1c(O)cccc(O)c1O
inhibition (Escherichia coli [1]): 54%
inhibition (Escherichia coli [2]): 2%
IC50 [3]: 40 µM
IC50 [4]: 11 µM
IC50 [5]: 0.3 µM
IC50 (B16 [6]): 0.26 µM
IC50 (B16 [7]): 60 µM
IC50 (B16 [8]): 90 µM
IC50 (B16 [9]): 70 µM
MST (B16 [10]): 29 days
MST (B16 [11]): 12 days
IC50 [12]: 8 µM
IC50 [13]: 60 µM
IC50 [14]: 3 µM
IC50 [15]: 20 µM
IC50 [16]: 3.2 µM

SMILES: COc1cc(C(=O)O)cc(O)c(OC)c1=O
IC50 (Plasmodium falciparum [17]): 3.7 µM

IC50 [12]: 4 µM
SMILES: N#Cc1ccc(-c2ccc(O)c(=O)c(O)c2O)cc1

SMILES: CO[C@@]12[C@H](COC(N)=O)C3=C(C(=O)C(C)=C(N)C3=O)N1C[C@@H]1N[C@@H]12 [MITOMYCIN]
MST (B16 [18]): 27 days

IC50 [3]: > 1000 µM
IC50 [15]: > 1000 µM
IC50 [16]: 30 µM
SMILES: CC(=O)Oc1cccc(OC(C)=O)c(=O)c1OC(C)=O

SMILES: O=c1cccccc1O [TROPOLONE]
IC50 (Plasmodium falciparum [17]): > 100 µM
IC50 [12]: > 1000 µM
IC50 [13]: > 1000 µM
IC50 [14]: 2 µM
IC50 [19]: > 100 µM
IC50 [20]: > 100 µM
IC50 [21]: > 100 µM
IC50 [22]: 3 µM

IC50 [23]: 2.5 µM
IC50 [25]: 0.41 µM
SMILES: NCc1ccc(-c2ccc(Cc3cc(=O)n(O)c4ncccc34)cc2)cc1
inhibition at 10 µM (Hepatitis B virus [24]): 93%

IC50 [19]: 50 µM
IC50 [20]: 33 µM
IC50 [21]: > 100 µM
IC50 [22]: 12 µM
SMILES: CC(C)c1ccccc(=O)c1O [ALPHA-THUJAPLICIN]

SMILES: CC(C)c1ccc(O)c(=O)c(O)c1 [BETA-THUJAPLICINOL]
inhibition (Escherichia coli [26]): 100%
inhibition (Escherichia coli [27]): 31%
IC50 [23]: 5.9 µM
IC50 [28]: 2.3 µM
EC50 (Hepatitis B virus [29]): 5 µM
IC50 [25]: 1.4 µM
MIC (Poria): 10 µM (≈ 1.8 µg/mL)
MIC (Coniophora puteana): 10 µM (≈ 1.8 µg/mL)
MIC [30]: 800 µM (≈ 144 µg/mL)
MIC [31]: 330 µM (≈ 59.5 µg/mL)
MIC [32]: 100 µM (≈ 18 µg/mL)
LD50 at 48 h [33]: 175 mg/kg
LD50 at 72 h [34]: 155 mg/kg
IC50 [19]: 0.2 µM
IC50 [20]: 0.8 µM
IC50 [21]: 50 µM
IC50 [22]: 5.7 µM
IC50 [15]: 0.2 µM

IC50 [3]: 0.6 µM
IC50 [4]: 1.2 µM
IC50 [15]: 12 µM
IC50 [16]: 0.6 µM
SMILES: O=Cc1ccc(-c2ccc(O)c(=O)c(O)c2O)cc1

SMILES: C[C@H]1[C@H](OC(=O)CCC(=O)O)O[C@@H]2O[C@@]3(C)CC[C@H]4[C@H](C)CC[C@@H]1[C@@]24OO3 [ARTESUNATE]
IC50 (Plasmodium falciparum [17]): 0.01 µM
IC50 (Plasmodium falciparum [35]): 0.0025 µM
IC50 (MRC5): 36 µM
ED50 (Plasmodium falciparum [36]): 1.7 mg/kg

SMILES: O=c1c(O)ccc(O)cc1O
IC50 (B16 [6]): 2.5 µM

SMILES: O=c1ccc(O)ccc1O
IC50 (B16 [6]): 13 µM

IC50 [3]: 0.15 µM
IC50 [4]: 1.7 µM
IC50 [15]: 900 µM
IC50 [16]: 52 µM
SMILES: CC(=O)Nc1ccc(-c2cc(-c3ccc(NC(C)=O)cc3)c(O)c(=O)c(O)c2O)cc1

IC50 [3]: 0.7 µM
IC50 [4]: 0.8 µM
IC50 [15]: 1.3 µM
IC50 [16]: 2.3 µM
SMILES: O=c1c(O)c(O)ccc(-c2cccc([N+](=O)[O-])c2)c1O

Ki [37]: 388 µM
Ki [38]: 53 µM
SMILES: O=C1C=CCN(O)C(=O)N1O

MIC (Poria): 10 µM (≈ 1.64 µg/mL)
MIC (Coniophora puteana): 10 µM (≈ 1.64 µg/mL)
MIC [30]: 70 µM (≈ 11.5 µg/mL)
MIC [31]: 50 µM (≈ 8.21 µg/mL)
MIC [32]: 50 µM (≈ 8.21 µg/mL)
SMILES: CC(C)c1ccc(O)c(=O)cc1 [GAMMA-THUJAPLICIN]

SMILES: O=C(O)c1cc(O)c(O)c(=O)c(O)c1
IC50 (Plasmodium falciparum [17]): 0.05 µM
IC50 (Plasmodium falciparum [35]): 0.05 µM
IC50 (MRC5): 360 µM
ED50 (Plasmodium falciparum [36]): < 2 mg/kg
IC50 [12]: 10 µM

SMILES: O=c1c(O)ccccc1O
inhibition (Escherichia coli [39]): 78%
inhibition (Escherichia coli [40]): 8%
Ki [37]: 16 µM
Ki [38]: 23 µM
inhibition (Escherichia coli [41]): 100%
MIC (Staphylococcus aureus): 90 µM (≈ 12.4 µg/mL)
MIC (Aspergillus fumigatus): 730 µM (≈ 101 µg/mL)
MIC (Micrococcus luteus): 90 µM (≈ 12.4 µg/mL)
MIC (Pseudomonas aeruginosa): 700 µM (≈ 96.7 µg/mL)
MIC (Klebsiella pneumoniae): 360 µM (≈ 49.7 µg/mL)
MIC (Escherichia coli [42]): 45 µM (≈ 6.22 µg/mL)
IC50 (B16 [6]): 2.2 µM
IC50 (Plasmodium falciparum [17]): 6.4 µM
IC50 (Plasmodium falciparum [35]): 8.7 µM
IC50 (MRC5): 1.7 µM
IC50 [12]: 75 µM
IC50 [13]: 15 µM
IC50 [14]: 2 µM

Source: ChEMBL document CHEMBL3588832, “The biology and synthesis of α-hydroxytropolones” (Medchemcomm, 2014)
